≈ marks a conversion by molar mass, not a printed value.
Experiments:
[1] = system: pathogenic fungi such as Candida albicans, Cryptococcus neoformans, Aspergillus fumigatus, Trichlophyton mentagrophytes and Mucor spinosus; experiment: In vitro antifungal activity; format: cell-based; conditions: clinically important pathogenic fungi
From the text: (§1) Nutrient agar (Eiken) was used for bacteria and Sabouraud dextrose agar (Difco) for fungi. The inoculum size was adjusted to 10^4 CFU/ml for bacteria and 10^5 -10^7 CFU/ml for fungi.

Piricularia oryzae = format: cell-based; conditions: Piricularia oryzae D 91; Sabouraud dextrose agar
[2] = system: gram-positive and gram-negative bacteria; experiment: In vitro antibacterial activity; format: cell-based; conditions: at 50 mcg/ml
From the text: as §1

Melanotic melanoma B16 = experiment: Antitumor activity against B16 melanoma in mice; format: in vivo, BDF1 mice; conditions: for T/C % of MST: B16 melanoma, BDF1 mice
Description: (§2) Lymphocytic leukemia P388 (CDF1 and BDF1 mice) and lymphoid leukemia L1210 (BDF1 mice) were inoculated by intraperitoneal injection of 0.8 ml diluted ascitic fluid containing 10^6 and 10^5 cells per mouse, respectively. Melanotic melanoma B16 (BDF1 mice) were implanted 0.5 ml of a 10% tumor brei intraperitoneally. Test materials were dissolved in 0.9% saline containing 10% dimethyl sulfoxide and graded doses of them were administered to mice intraperitoneally 24 hours after tumor implantation. Either olivomycin (NSC 38270) or mitomycin C was comparatively tested as a reference compound in the experiments.

Solubility in solvents = format: physicochemical
Candida albicans = experiment: MIC, serial agar dilution (Sabouraud dextrose agar); format: cell-based
From the text: as §1

Mucor spinosus = experiment: as above; format: cell-based; conditions: Mucor spinosus IFO 5317
From the text: as §1

[3] = system: Trichophyton mentagrophytes; experiment: as above; format: cell-based
From the text: as §1

Aspergillus flavus = experiment: as above; format: cell-based; conditions: Aspergillus flavus FA 21436
From the text: as §1

Cryptococcus neoformans = experiment: as above; format: cell-based
From the text: as §1

Blastomyces dermaditis = experiment: as above; format: cell-based; conditions: Blastomyces dermaditis IFO 8144
From the text: as §1

Petriellidium boydii = experiment: as above; format: cell-based; conditions: Petriellidium boydii IFO 8073
From the text: as §1

Aspergillus fumigatus = experiment: as above; format: cell-based
From the text: as §1

Sporothrix schenckii = experiment: as above; format: cell-based; conditions: Sporothrix schenckii IFO 8158
From the text: as §1

Fusarium moniliforme = experiment: as above; format: cell-based; conditions: Fusarium moniliforme A 2284
From the text: as §1

[4] = Acute toxicity, single intraperitoneal administration; conditions: male ddY mice
Proteus vulgaris = experiment: MIC, serial agar dilution (nutrient agar); format: cell-based; conditions: Proteus vulgaris A9436
From the text: as §1

Morganella morganii = experiment: MIC, serial agar dilution (nutrient agar); format: cell-based; conditions: Morganella morganii A9553
From the text: as §1

Serratia marcescens = experiment: MIC, serial agar dilution (nutrient agar); format: cell-based; conditions: Serratia marcescens A20222
From the text: as §1

Klebsiella pneumoniae = experiment: MIC, serial agar dilution (nutrient agar); format: cell-based; conditions: Klebsiella pneumoniae D-11
From the text: as §1

Enterobacter cloacae = experiment: MIC, serial agar dilution (nutrient agar); format: cell-based; conditions: Enterobacter cloacae A9659
From the text: as §1

[5] = system: Staphylococcus epidermidis; experiment: MIC, serial agar dilution (nutrient agar); format: cell-based
From the text: as §1

Pseudomonas aeruginosa = experiment: MIC, serial agar dilution (nutrient agar); format: cell-based; conditions: Pseudomonas aeruginosa A9930
From the text: as §1

Bacillus subtilis = experiment: MIC, serial agar dilution (nutrient agar); format: cell-based; conditions: Bacillus subtilis PCI-219
From the text: as §1

Proteus mirabilis = experiment: MIC, serial agar dilution (nutrient agar); format: cell-based; conditions: Proteus mirabilis A9554
From the text: as §1

Streptococcus faecalis = experiment: MIC, serial agar dilution (nutrient agar); format: cell-based; conditions: Streptococcus faecalis A9612
From the text: as §1

Staphylococcus aureus = experiment: MIC, serial agar dilution (nutrient agar); format: cell-based
From the text: as §1

Micrococcus luteus = experiment: MIC, serial agar dilution (nutrient agar); format: cell-based; conditions: Micrococcus luteus PCI-1001
From the text: as §1

Escherichia coli = experiment: MIC, serial agar dilution (nutrient agar); format: cell-based; conditions: Escherichia coli NIHJ
From the text: as §1

[6] = system: Lymphocytic leukemia P388; experiment: Antitumor activity against P388 leukemia in mice; format: in vivo, CDF1 and BDF1 mice; conditions: for T/C % of MST: P388 leukemia; for antitumor activity against P388 leukemia (in words): ip
Description: as §2
Values for percentage ratios of 125 and above indicate significant antitumor effect.

lymphoid leukemia L1210 = experiment: Antitumor activity against L1210 leukemia in mice; format: in vivo, BDF1 mice; conditions: for T/C % of MST: L1210 leukemia, BDF1 mice
Description: as §2

## CCCCCCC/C=C/C=C/C(=O)N[C@H](C(=O)N[C@H]1C[C@@H](O)CCNC(=O)/C=C/[C@H](C)NC1=O)[C@@H](C)O [BU-2867T A]
[1]
  antifungal activity (in words): somewhat less active than component C
Piricularia oryzae
  MIC: > 50 µg/mL
[2]
  growth inhibition of gram-positive and gram-negative bacteria (in words): did not inhibit the growth
Melanotic melanoma B16; 0.25 mg/kg/day ip
  T/C % of MST: 113%
Melanotic melanoma B16; 0.5 mg/kg/day ip
  T/C % of MST: 116%
Melanotic melanoma B16; 1 mg/kg/day ip
  T/C % of MST: 125%
Melanotic melanoma B16; 2 mg/kg/day ip
  T/C % of MST: Tox.
Melanotic melanoma B16; compared with P388
  antitumor activity against B16 melanoma (in words): less active
Solubility in solvents
  solubility in chloroform, acetonitrile and ethyl acetate: slightly soluble
  solubility in methanol, ethanol, n-butanol and dimethyl sulfoxide: readily soluble
  solubility in n-hexane and water: practically insoluble
Candida albicans; Candida albicans A 9540
  MIC: 1.6 µg/mL (≈ 3.07 µM)
Candida albicans; Candida albicans IAM 4888
  MIC: 3.1 µg/mL (≈ 5.95 µM)
Mucor spinosus
  MIC: 1.6 µg/mL (≈ 3.07 µM)
[3]; Trichophyton mentagrophytes #4329
  MIC: 25 µg/mL (≈ 48 µM)
[3]; Trichophyton mentagrophytes D 155
  MIC: 25 µg/mL (≈ 48 µM)
Aspergillus flavus
  MIC: 25 µg/mL (≈ 48 µM)
Cryptococcus neoformans; Cryptococcus neoformans D 49
  MIC: 25 µg/mL (≈ 48 µM)
Cryptococcus neoformans; Cryptococcus neoformans IAM 4514
  MIC: 25 µg/mL (≈ 48 µM)
Blastomyces dermaditis
  MIC: 50 µg/mL (≈ 96 µM)
Petriellidium boydii
  MIC: > 50 µg/mL
Aspergillus fumigatus; Aspergillus fumigatus IAM 2034
  MIC: 1.6 µg/mL (≈ 3.07 µM)
Aspergillus fumigatus; Aspergillus fumigatus IAM 2530
  MIC: 1.6 µg/mL (≈ 3.07 µM)
Sporothrix schenckii
  MIC: > 50 µg/mL
Fusarium moniliforme
  MIC: > 50 µg/mL
[4]
  LD50: 8.1 mg/kg
Proteus vulgaris
  MIC: > 50 µg/mL
Morganella morganii
  MIC: > 50 µg/mL
Serratia marcescens
  MIC: > 50 µg/mL
Klebsiella pneumoniae
  MIC: > 50 µg/mL
Enterobacter cloacae
  MIC: > 50 µg/mL
[5]; Staphylococcus epidermidis A22152
  MIC: > 50 µg/mL
[5]; Staphylococcus epidermidis D153
  MIC: > 50 µg/mL
Pseudomonas aeruginosa
  MIC: > 50 µg/mL
Bacillus subtilis
  MIC: > 50 µg/mL
Proteus mirabilis
  MIC: > 50 µg/mL
Streptococcus faecalis
  MIC: > 50 µg/mL
Staphylococcus aureus; Staphyloccus aureus Bx-1633
  MIC: > 50 µg/mL
Staphylococcus aureus; Staphylococcus aureus 209P
  MIC: > 50 µg/mL
Staphylococcus aureus; Staphylococcus aureus Smith
  MIC: > 50 µg/mL
Micrococcus luteus
  MIC: > 50 µg/mL
Escherichia coli
  MIC: > 50 µg/mL
[6]; 0.031 mg/kg/day ip, schedule 2 (once daily on days 1 through 9)
  T/C % of MST: 109%
[6]; 0.063 mg/kg/day ip, schedule 2 (once daily on days 1 through 9)
  T/C % of MST: 136%
[6]; 0.1 mg/kg/day ip, schedule 1 (once daily on days 1, 4 and 7)
  T/C % of MST: 120%
[6]; 0.13 mg/kg/day ip, schedule 2 (once daily on days 1 through 9)
  T/C % of MST: 147%
[6]; 0.25 mg/kg/day ip, schedule 2 (once daily on days 1 through 9)
  T/C % of MST: 156%
[6]; 0.3 mg/kg/day ip, schedule 1 (once daily on days 1, 4 and 7)
  T/C % of MST: 130%
[6]; 0.5 mg/kg/day ip, schedule 2 (once daily on days 1 through 9)
  T/C % of MST: 186%
[6]; 1 mg/kg/day ip, schedule 1 (once daily on days 1, 4 and 7)
  T/C % of MST: 140%
[6]; 1 mg/kg/day ip, schedule 2 (once daily on days 1 through 9)
  T/C % of MST: 228%
[6]; 2 mg/kg/day ip, schedule 2 (once daily on days 1 through 9)
  T/C % of MST: 67%
[6]; treatment schedule 1 (once daily on days 1, 4 and 7)
  antitumor activity against P388 leukemia (in words): showed antitumor activity
[6]; treatment schedule 2 (once daily on days 1 through 9)
  antitumor activity against P388 leukemia (in words): highly active
Lymphoid leukemia L1210; 0.063 mg/kg/day ip
  T/C % of MST: 106%
Lymphoid leukemia L1210; 0.13 mg/kg/day ip
  T/C % of MST: 118%
Lymphoid leukemia L1210; 0.25 mg/kg/day ip
  T/C % of MST: 118%
Lymphoid leukemia L1210; 0.5 mg/kg/day ip
  T/C % of MST: 129%
Lymphoid leukemia L1210; compared with P388
  antitumor activity against L1210 leukemia (in words): less active

From patent US4898940A (priority 1989, dated 1990)
